Assay results published in article PMC5404542, “In Vitro and In Vivo Antifungal Profile of a Novel and Long-Acting Inhaled Azole, PC945, on Aspergillus fumigatus Infection” (Antimicrobial Agents and Chemotherapy, 2017).
≈ marks a conversion by molar mass, not a printed value. Where “and” joins values, the source holds several entries; their conditions need not be identical. Identical values can stand only once. Like-named read-outs stand apart in the source and are kept apart here.

Legend:
[1] = tested on: Aspergillus carbonarius (ATCC 8740); assay: MIC, CLSI; type: cell-based; conditions: ATCC8740, 1 strain, CLSI, read-out: MIC
[2] = tested on: Trichophyton rubrum (ATCC 10218); assay: MIC, CLSI; type: cell-based; conditions: ATCC10218, 1 strain
[3] = tested on: BEAS2B cells infected with A. fumigatus; assay: Persistence of action on bronchial epithelial cells (galactomannan in supernatant); type: cell-based, Aspergillus fumigatus; conditions: for IC50: Aspergillus fumigatus, BEAS-2B
Method: The persistence of action of test agents was evaluated on immortalized bronchial epithelial cells (BEAS2B cells). […] Test and reference articles or undiluted DMSO (as vehicle) (0.5 μl/well) was added to the appropriate wells of the washout plate to give a final concentration of 0.5% DMSO. The plate was incubated for exactly 1 h at 37°C and 5% CO2. After the incubation time had elapsed, all wells on the washout plate were aspirated, and growth medium (100 μl/well) was added across the plate. After 24 h of incubation at 37°C, test and reference articles or undiluted DMSO (as vehicle) (0.5 μl/well) was added to the appropriate wells of the nonwashout plate to give a final concentration of 0.5% DMSO. The plate was incubated for exactly 1 h at 37°C and 5% CO2, after which A. fumigatus conidia were added across both plates to a final concentration of 1 × 10^3/well.

[4] = tested on: Cryptococcus neoformans (ATCC 24067); assay: MIC, CLSI; type: cell-based; conditions: for MIC: Cryptococcus neoformans, ATCC24067, 1 strain, CLSI, read-out: MIC
[5] = tested on: Aspergillus terreus (AT49, AT7130); assay: MIC, EUCAST; type: cell-based; conditions: 2 strains, EUCAST, mean isolate MIC, read-out: MIC
[6] = tested on: Aureobasidium pullulans (ATCC 9348); assay: MIC, CLSI; type: cell-based; conditions: ATCC9348, 1 strain
[7] = tested on: Mucor circinelloides (ATCC 8542); assay: MIC, CLSI; type: cell-based; conditions: ATCC8542, 1 strain
[8] = tested on: Gibberella zeae (Fusarium graminearum) (ATCC 16106); assay: microbe, parasite or virus in culture; type: cell-based; conditions: ATCC16106
[9] = tested on: Rhizomucor pusillus (ATCC 16458); assay: MIC, CLSI; type: cell-based; conditions: ATCC16458, 1 strain
A. fumigatus ATCC 204305 = assay: MIC with and without BSA supplementation, quality control strain; conditions: Aspergillus fumigatus
Method: Conidia were added across the plate to a final concentration of 1 × 10^5 ml^−1. […] Determination of antifungal activity against 50 A. fumigatus clinical isolates from St. Louis Hospital (Paris, France) was performed with 96-well plates, using the modified EUCAST method in the presence of 0.5% BSA as described above. Antifungal susceptibility testing of 46 A. fumigatus isolates (obtained from the NW England Mycology Reference Centre) was performed by Evotec UK Ltd. (Manchester, United Kingdom) according to EUCAST guidelines.

A. fumigatus (NCPF2010) = assay: A. fumigatus cell-based ergosterol assay; parameters: species or system Aspergillus fumigatus; conditions: for IC50: Aspergillus fumigatus, NCPF2010, 24 h, normalized by crystal violet, read-out: IC50, inhibition of ergosterol production
Method: After incubation for 24 h at 35°C, medium was removed from all wells and replaced with reaction buffer (Amplex red cholesterol assay kit; Thermo Fisher) and Amplex red solution. Plates were incubated for 30 min at 37°C, protected from light, after which fluorescence was quantified using a spectrophotometer. Medium was removed from all wells and replaced with crystal violet solution (1% [vol/vol]), and plates were incubated at room temperature on a shaker for 30 min. Plates were washed three times with phosphate-buffered saline (PBS), and sodium dodecyl sulfate solution (0.1% [vol/vol]) was added across the plate to lyse the cells. After incubation at room temperature for 1 h, the absorbance was measured by determining the OD590 by use of a spectrophotometer.

A. fumigatus = A. fumigatus sterol analysis by GC-MS; type: cell-based, Aspergillus fumigatus; conditions: 2 h
Method: A working suspension of A. fumigatus spores was prepared in filter-sterilized MOPS-RPMI 1640 (RPMI 1640 medium containing 2 mM L-glutamine, 2% glucose, and 0.165 M MOPS, buffered to pH 7 with NaOH) to a final concentration of 8 × 10^6 spores ml^-1. […] Samples for baseline determinations were collected by scraping, pelleted by centrifugation at 2,000 rpm for 5 min, and stored at -80°C. Test compounds or DMSO (50 μl) was added to the remaining dishes, which were subsequently gently rocked by hand to disperse the compounds. […] Samples were collected and processed as described above. […] These samples were prepared in the laboratory at Pulmocide Ltd. and sent to the laboratory at the Centre for Cytochrome P450 Biodiversity, Institute of Life Science, […] University Medical School, for experimentation. Nonsaponifiable lipids were extracted as previously reported ([29]) and were derivatized with 0.1 ml N,O-bis(trimethylsilyl)trifluoroacetamide:trimethylchlorosilane (99:1) and 0.3 ml anhydrous pyridine (2 h at 80°C) prior to analysis by gas chromatography-mass spectrometry ([38]). Sterol composition was calculated using peak areas from the gas chromatograms, and the mass fragmentation patterns compared to known standards were used to confirm sterol identity. The sterol contents of A. fumigatus (basal) and treated A. fumigatus (treated with either DMSO, posaconazole, or PC945) were determined.

[10] = tested on: Cryptococcus gattii (clinical isolate); assay: MIC, EUCAST; type: cell-based; conditions: 1 strain
AfCYP51A = AfCYP51A (Aspergillus fumigatus, UniProt Q4WNT5); assay: A. fumigatus CYP51 binding assay (ligand titration, type II difference spectra); parameters: made in house
Method: A. fumigatus CYP51 binding properties were determined as described by Warrilow et al. ([35]). Test agents were titrated against 4 μM recombinant A. fumigatus CYP51A or CYP51B protein, and binding saturation curves were constructed from the change in the absorbance between the spectral peak and the trough. A rearrangement of the Morrison equation was used to determine the dissociation constant (Kd) values when ligand binding was tight ([36]).

[11] = tested on: Aspergillus flavus (ATCC 204304); assay: MIC, CLSI; type: cell-based; conditions: ATCC204304, 1 strain, CLSI, read-out: MIC
[12] = tested on: Aspergillus flavus (AFL8, NRRC3357); assay: MIC, EUCAST; type: cell-based; conditions: 2 strains, EUCAST, mean isolate MIC, read-out: MIC
[13] = 1 h contact before infection, GM readout after 24 h, read-out: BEAS2B cells IC50, No washout
[14] = 1 h contact, 24-h washout prior to infection, GM readout, read-out: BEAS2B cells IC50, Washout

Chain of AfCYP51A (Q4WNT5 whole entry): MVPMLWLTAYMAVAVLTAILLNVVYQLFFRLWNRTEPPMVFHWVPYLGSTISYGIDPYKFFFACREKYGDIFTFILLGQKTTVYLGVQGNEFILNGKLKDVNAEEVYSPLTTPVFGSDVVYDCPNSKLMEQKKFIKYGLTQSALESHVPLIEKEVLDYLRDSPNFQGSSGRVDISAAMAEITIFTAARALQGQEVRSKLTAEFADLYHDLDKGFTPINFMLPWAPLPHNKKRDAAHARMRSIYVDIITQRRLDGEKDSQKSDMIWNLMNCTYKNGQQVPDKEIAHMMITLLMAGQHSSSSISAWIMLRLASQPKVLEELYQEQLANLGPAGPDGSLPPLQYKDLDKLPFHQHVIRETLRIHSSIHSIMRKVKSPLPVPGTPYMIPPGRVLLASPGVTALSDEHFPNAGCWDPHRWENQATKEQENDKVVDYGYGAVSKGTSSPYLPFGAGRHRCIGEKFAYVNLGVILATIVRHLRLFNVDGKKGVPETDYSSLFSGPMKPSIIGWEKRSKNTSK

CC[C@@H]([C@H](C)O)n1ncn(-c2ccc(N3CCN(c4ccc(OC[C@@H]5CO[C@@](Cn6cncn6)(c6ccc(F)cc6F)C5)cc4)CC3)cc2)c1=O [Posaconazole, posaconazole]
MIC [1]: 0.063 µg/mL (≈ 0.0899 µM) | MIC [2]: 0.031 µg/mL (≈ 0.0442 µM) | IC50 [3, 13]: 0.0031 µg/mL (≈ 0.00442 µM) | IC50 [3, 14]: 0.046 µg/mL (≈ 0.0656 µM) | BEAS2B cells Fold change ([3]; washout versus no washout): 14.7 fold | MIC [4]: 0.016 µg/mL (≈ 0.0228 µM) | MIC [5]: 0.093 µg/mL (≈ 0.133 µM) | MIC [6]: 1 µg/mL (≈ 1.43 µM) | MIC [7]: > 8 µg/mL | MIC [8]: > 8 µg/mL | MIC [9]: > 8 µg/mL | MIC (A. fumigatus ATCC 204305; ATCC204305, with BSA): 0.06 µg/mL (≈ 0.0856 µM) | MIC (A. fumigatus ATCC 204305; ATCC204305, without BSA): 0.03 µg/mL (≈ 0.0428 µM) | IC50 (A. fumigatus (NCPF2010)): 0.012 µg/mL and 17 nM | Sterol content in cells, Eburicol (A. fumigatus; 0.0001 μg/ml): 2.2% | Sterol content in cells, Ergost-5,7-dienol (A. fumigatus; 0.0001 μg/ml): 3.3% | Sterol content in cells, Ergosterol (A. fumigatus; 0.0001 μg/ml): 94.5% | Sterol content in cells, Lanosterol (A. fumigatus; 0.0001 μg/ml): 0% | Sterol content in cells, Eburicol (A. fumigatus; 0.001 μg/ml): 5.9% | Sterol content in cells, Ergost-5,7-dienol (A. fumigatus; 0.001 μg/ml): 3.9% | Sterol content in cells, Ergosterol (A. fumigatus; 0.001 μg/ml): 87.2% | Sterol content in cells, Lanosterol (A. fumigatus; 0.001 μg/ml): 3.0% | Sterol content in cells, Eburicol (A. fumigatus; 0.01 μg/ml): 18.3% | Sterol content in cells, Ergost-5,7-dienol (A. fumigatus; 0.01 μg/ml): 0% | Sterol content in cells, Ergosterol (A. fumigatus; 0.01 μg/ml): 74.7% | Sterol content in cells, Lanosterol (A. fumigatus; 0.01 μg/ml): 7.0% | Sterol content in cells, Eburicol (A. fumigatus; 0.1 μg/ml): 23.4% | Sterol content in cells, Ergost-5,7-dienol (A. fumigatus; 0.1 μg/ml): 0% | Sterol content in cells, Ergosterol (A. fumigatus; 0.1 μg/ml): 67.8% | Sterol content in cells, Lanosterol (A. fumigatus; 0.1 μg/ml): 8.8% | Sterol content in cells, Eburicol (A. fumigatus; 1 μg/ml): 23.8% | Sterol content in cells, Ergost-5,7-dienol (A. fumigatus; 1 μg/ml): 0% | Sterol content in cells, Ergosterol (A. fumigatus; 1 μg/ml): 67.4% | Sterol content in cells, Lanosterol (A. fumigatus; 1 μg/ml): 8.8% | MIC [10]: 0.5 µg/mL (≈ 0.713 µM) | Kd (AfCYP51A): 0.96 µM | MIC [11]: 0.13 µg/mL (≈ 0.186 µM) | MIC [12]: 0.16 µg/mL (≈ 0.228 µM)

Cc1cc(N2CCN(c3ccc(C(=O)Nc4ccc(F)cc4)cc3)CC2)ccc1OC[C@@H]1CO[C@@](Cn2cncn2)(c2ccc(F)cc2F)C1 [PC945, 4-[4-(4-{[(3R,5R)-5-(2,4-difluorophenyl)-5-(1H-1,2,4-triazol-1-ylmethyl)oxolan-3-yl]methoxy}-3-methylphenyl)piperazin-1-yl]-N-(4-fluorophenyl)benzamide]
MIC [1]: 4 µg/mL (≈ 5.86 µM) | MIC [2]: 0.031 µg/mL (≈ 0.0454 µM) | IC50 [3, 13]: 0.0037 µg/mL (≈ 0.00542 µM) | IC50 [3, 14]: 0.043 µg/mL (≈ 0.063 µM) | fold more potent than both voriconazole and posaconazole ([4]; C. neoformans): 2 fold | MIC [4]: 0.008 µg/mL (≈ 0.0117 µM) | MIC [5]: 0.078 µg/mL (≈ 0.114 µM) | MIC [6]: > 8 µg/mL | MIC [7]: > 8 µg/mL | MIC [8]: > 8 µg/mL | MIC [9]: > 8 µg/mL | MIC (A. fumigatus ATCC 204305; ATCC204305, with BSA): 0.0625 µg/mL (≈ 0.0915 µM) | MIC (A. fumigatus ATCC 204305; ATCC204305, without BSA): 0.25 µg/mL (≈ 0.366 µM) | fold more potent than posaconazole, ergosterol production (A. fumigatus (NCPF2010)): 2.6 fold | fold more potent than voriconazole, ergosterol production (A. fumigatus (NCPF2010)): 14 fold | IC50 (A. fumigatus (NCPF2010)): 0.0047 µg/mL and 6.9 nM | Sterol content in cells, Eburicol (A. fumigatus; 0.0001 μg/ml): 0% | Sterol content in cells, Ergost-5,7-dienol (A. fumigatus; 0.0001 μg/ml): 4.1% | Sterol content in cells, Ergosterol (A. fumigatus; 0.0001 μg/ml): 95.9% | Sterol content in cells, Lanosterol (A. fumigatus; 0.0001 μg/ml): 0% | Sterol content in cells, Eburicol (A. fumigatus; 0.001 μg/ml): 2.7% | Sterol content in cells, Ergost-5,7-dienol (A. fumigatus; 0.001 μg/ml): 2.5% | Sterol content in cells, Ergosterol (A. fumigatus; 0.001 μg/ml): 94.7% | Sterol content in cells, Lanosterol (A. fumigatus; 0.001 μg/ml): 0% | Sterol content in cells, Eburicol (A. fumigatus; 0.01 μg/ml): 6.5% | Sterol content in cells, Ergost-5,7-dienol (A. fumigatus; 0.01 μg/ml): 3.3% | Sterol content in cells, Ergosterol (A. fumigatus; 0.01 μg/ml): 86.7% | Sterol content in cells, Lanosterol (A. fumigatus; 0.01 μg/ml): 3.6% | Sterol content in cells, Eburicol (A. fumigatus; 0.1 μg/ml): 13.2% | Sterol content in cells, Ergost-5,7-dienol (A. fumigatus; 0.1 μg/ml): 0% | Sterol content in cells, Ergosterol (A. fumigatus; 0.1 μg/ml): 80.6% | Sterol content in cells, Lanosterol (A. fumigatus; 0.1 μg/ml): 6.2% | Sterol content in cells, Eburicol (A. fumigatus; 1 μg/ml): 19.3% | Sterol content in cells, Ergost-5,7-dienol (A. fumigatus; 1 μg/ml): 0% | Sterol content in cells, Ergosterol (A. fumigatus; 1 μg/ml): 71.3% | Sterol content in cells, Lanosterol (A. fumigatus; 1 μg/ml): 9.4% | MIC [10]: 0.25 µg/mL (≈ 0.366 µM) | Kd (AfCYP51A): 0.5 µM | difference spectra on titration against purified CYP51A (AfCYP51A): type II difference spectra | MIC [11]: > 8 µg/mL | MIC [12]: 6 µg/mL (≈ 8.79 µM)
